Values quoted from earlier work in patent US8445438B2, “Compositions comprising capture peptides for A β-amyloid peptide” (Recombinant Technologies LLC, priority 2008, dated 2013).

System: Aβ
Conditions: peptide based on the GxFxGxF scaffold

Sequence of Aβ (P05067 672-711 limits assumed): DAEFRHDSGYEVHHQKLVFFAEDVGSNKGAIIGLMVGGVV

For RGTWEGKW (listed as Homo sapiens), the cellular toxicity is listed as “reduce cellular toxicity”.
